Data published in patent US20240148757A1, “USE OF DIHYDROOROTATE DEHYDROGENASE (DHODH) INHIBITORS TO TARGET FERROPTOSIS IN CANCER THERAPY” (BOARD OF REGENTS, THE UNIVERSITY OF TEXAS SYSTEM, priority 2021, published 2024).

Experiments:
GPX4^high HT-1080 cells = experiment: Cell viability / cell death (ferroptosis) in HT-1080 cells; type: cell-based, human; conditions: 24 hours; for protection against GPX4 inhibition (RSL3 or ML162)-induced ferroptosis: DHODH WT, pretreatment 10 μM
Method: (§1) Briefly, cells were seeded onto 96-well plates at a density of 2×10^4 per well. The next day, cells were treated with GPX4 or DHODH inhibitors for 4 hours. Subsequently, cells exposed to 10 μl CCK-8 reagent (100 μl medium per well) for 1 hour at 37° C., 5% CO2 in an incubator. The absorbance at a wavelength of 450 nm was determined using a FLUOstar Omega microplate reader (BMG Labtech).
(§2) For propidium iodide-staining, cells were seeded at a density of 50% confluence into 12-well plates. The next day, cells were treated with different reagents. To measure cell death, the cells were collected (including floating dead cells), stained with 5 μg/ml propidium iodide and the percentage of the propidium iodide-positive dead cell population was analyzed using the flow cytometer BD Accuri C6 (BD Biosciences) and an FL2 detector. A minimum of 10,000 single cells were analyzed per well and all experiments were carried out at least in triplicate.

DHODH KO HT-1080 cells [1] = experiment: Cell viability / cell death (ferroptosis) in DHODH KO HT-1080 cells; type: cell-based, human; conditions: for protection against GPX4 inhibition (RSL3 or ML162)-induced ferroptosis: DHODH KO, pretreatment 10 μM, 24 hours
Method: Knockout of DHODH, ACSL4 and COQ2 in human cell lines was performed using single guide RNAs (sgRNAs) and doxycycline (DOX)-inducible CRISPR-Cas9 expression system as described in our recent publication (Lee, H., et al., Nature cell biology 22, 225-234 (2020)). sgRNAs were cloned into the lentiviral lentiGuide vector. LentiGuide clones were transfected into HEK293T cells with psPAX2 packaging plasmid and pMD2.G expressing plasmid. Cells were infected with lentivirus with 0.8 μg/ml polybrene, selected with puromycin (1 μg/ml, InvivoGen), blasticidin (2 μg/ml, InvivoGen) or hygromycin B (2 μg/ml, InvivoGen) for 3 days and then single cells were sorted into 96-well plates. Single cells were maintained in DMEM with 10% (v/v) FBS and 1% (v/v) penicillin/streptomycin at 37° C. in an incubator with 20% O2 and 5% CO2 for 3-4 weeks and each colony was verified by western blot to confirm the target gene deletion. To generate cell lines with DOX-inducible CRISPR-Cas9-mediated gene deletion, cells were infected with lentivirus, selected with puromycin (1 μg/ml, InvivoGen), blasticidin (2 μg/ml, InvivoGen) or hygromycin B (2 μg/ml, InvivoGen) for 2 days and then single cells were sorted into 96-well plates. Once cell lines were established, 1 μg/ml of DOX (Sigma-Aldrich) was added to the media to induce target gene deletion for 48 hours after selection; then cells were cultured in DOX-free media for subsequent analyses.
as §1, with “Viable cells were measured using Cell Counting Kit-8 (CCK-8, Dojindo) as previously described (Koppula, P., Zhang, Y., Shi, J., Li, W. & Gan, B, J Biol Chem 292, 14240-14249 (2017); Liu, X. & Gan, B, Cell Cycle 15, 3471-3481 (2016)). Briefly,” for “Briefly,”
as §2, with “Cell death was measured by propidium iodide (Roche) staining using a flow cytometer, as previously described (Dai, F., et al., Proc Natl Acad Sci USA 114, 3192-3197 (2017); Zhang, Y., et al., Cancer Res 80, 2243-2256 (2020)). For” for “For”

DHODH KO HT-1080 cells [2] = experiment: Mitochondrial lipid peroxidation (mito-BODIPY) in DHODH KO HT-1080 cells; type: cell-based, human; conditions: pretreatment 10 μM, 24 hours
GPX4^low NCI-H226 cells = experiment: Cell viability / cell death (ferroptosis) in NCI-H226 cells; type: cell-based, human; conditions: pretreatment 48 hours (C-Asp, DHO, OA 100 μM; uridine 50 μM), RSL3 4 hours
Method: as §1, with “Viable cells were measured using Cell Counting Kit-8 (CCK-8, Dojindo) as previously described (Koppula, P., Zhang, Y., Shi, J., Li, W. & Gan, B, J Biol Chem 292, 14240-14249 (2017); Liu, X. & Gan, B, Cell Cycle 15, 3471-3481 (2016)). Briefly,” for “Briefly,”
as §2, with “Cell death was measured by propidium iodide (Roche) staining using a flow cytometer, as previously described (Dai, F., et al., Proc Natl Acad Sci USA 114, 3192-3197 (2017); Zhang, Y., et al., Cancer Res 80, 2243-2256 (2020)). For” for “For”

NCI-H226 cells = experiment: Intracellular metabolite levels upon supplementation; type: in vitro ADME, human; conditions: for intracellular levels upon supplementation: 100 μM, 48 hours
Method: (§3) Metabolomic analysis was performed as previously described (Liu, X., et al., Nat Cell Biol 22, 476-486 (2020)). Cells were seeded on 35 mm culture plates at a density sufficient to ensure approximately 70-80% confluence at the time of extraction. For metabolic tracer analysis of pyrimidine synthesis, HT-1080 cells were treated with RSL3 and/or Lip-1 for 2 hours and then were shifted to drug-free media containing amide-^15N-glutamine (this time point is defined as 0 hour). Metabolites were extracted at the indicated time points for subsequent analyses. Metabolites were extracted by rapidly aspirating the culture medium and then adding 0.6 mL of an 80% methanol: 20% water mixture at dry ice temperature. The plates were incubated on dry ice for 15 minutes before the cell material was scraped into eppendorf tubes pre-chilled on ice. The cell debris was pelleted by centrifugation at 13,000 RCF for 5 minutes at 4° C. and the supernatant was transferred to a fresh tube and stored on dry ice until analysis. Just prior to analysis, 500 μL of extract was dried under nitrogen gas flow and then resuspended in 100 μL water.
(§4) The complete platform consists of an Accela 1250 HPLC system, Accela Open Autosampler, MayLab Mistraswitch column oven and Exactive orbitrap mass spectrometer, controlled by the Xcalibur 3.0.63 software package. Chromatography was performed with a Phenomenex Synergi Hydro-RP column (100×2 mm, 2.5 μm particle size). Solvent A is 10 mM tributylamine and […] acetic acid in water; Solvent B is methanol. The gradient is: 0 min, 0% B; 2.5 min, 0% B; 5 min, 20% B; 7.5 min, 20% B; 13 min, 55% B; 15.5 min, 95% B; 18.5 min, 95% B; 19 min, 0% B; 25 min, 0% B. The injection volume was 10 μL. The column temperature was set to 40° C., and the flow rate was 200 μL/min. The Exactive was operated in negative ionization mode with an electrospray ionization interface. The instrument parameters are as follows: sheath gas flow rate 30 (arbitrary units), aux gas flow rate 10 (arbitrary units), sweep gas flow rate 3 (arbitrary units), spray voltage 3 kV, capillary temperature 325° C., capillary voltage −25 V, tube lens voltage −50 V. The scan range was set to 80-1000 m/z, with a maximum inject time of 250 ms, resolution of 100,000 at 1 Hz, and AGC (automatic gain control) target 1E6. The data were analyzed using the MAVEN software suite57 with signal intensity determined as the Peak Area (Top). For metabolic labeling experiments, the data were corrected to account for the natural abundance of nitrogen-15 using IsoCorrectoR (Heinrich, P., et al., Sci Rep 8, 17910 (2018)).

[3] = test system: GPX4^high and GPX4^low cancer cell lines; experiment: Cell viability in panel of GPX4^high and GPX4^low cancer cell lines; type: cell-based, human; conditions: supplementation 100 μM 48 hours, RSL3 4 hours
Method: as §1, with “Viable cells were measured using Cell Counting Kit-8 (CCK-8, Dojindo) as previously described (Koppula, P., Zhang, Y., Shi, J., Li, W. & Gan, B, J Biol Chem 292, 14240-14249 (2017); Liu, X. & Gan, B, Cell Cycle 15, 3471-3481 (2016)). Briefly,” for “Briefly,”

[4] = test system: multiple cancer cell lines; experiment: Global metabolomic analysis; type: cell-based, human; conditions: short-term (2-hour) treatment, 10 μM
Method: as §3, §4

Row | Compound | protection against GPX4 inhibition (RSL3 or ML162)-induced ferroptosis (GPX4^high HT-1080 cells) | protection against GPX4 inhibition (RSL3 or ML162)-induced ferroptosis (DHODH KO HT-1080 cells [1]) | suppression of GPX4 inhibitor-induced mitochondrial lipid peroxidation (DHODH KO HT-1080 cells [2]) | effect of supplementation on cellular sensitivity to GPX4 inhibition (RSL3) (GPX4^low NCI-H226 cells) | intracellular levels upon supplementation (NCI-H226 cells) | also measured
1 | N-benzyloxycarbonyl-val-ala-asp(o-me) fluoromethyl ketone [Z-VAD-FMK] |  |  |  |  |  | rescue of DHODH inhibition-induced cell death (GPX4^high HT-1080 cells; BQR, pretreatment Lip-1 or ZVF 10 μM): the opposite was observed
2 | CC1(C)CCCC(C)(C)N1[O] [TEMPO, 2,2,6,6-tetramethyl-1-piperidinyloxy] | rescued | rescued | could be suppressed |  |  | 
3 | NC(=O)N[C@@H](CC(=O)O)C(=O)O [C-Asp, N-Carbamoyl-L-aspartate] |  |  |  | did not affect ferroptosis sensitivity | only moderately increased | cell permeability (NCI-H226 cells): largely impermeable to cells
4 | COC1=C(OC)C(=O)C(CCCCCCCCCC[P+](c2ccccc2)(c2ccccc2)c2ccccc2)=C(C)C1=O [mitoQ, [10-(4,5-dimethoxy-2-methyl-3,6-dioxo-1,4-cyclohexadien-1-yl)decyl] triphenyl-phosphonium, monomethanesulfonate] | provided limited protection |  |  |  |  | 
5 | CC1(C)CC(NC(=O)C[P+](c2ccccc2)(c2ccccc2)c2ccccc2)CC(C)(C)N1[O] [mito-TEMPO, 2-(2,2,6,6-tetramethylpiperidin-1-oxyl-4-ylamino)-2-oxoethyl) triphenylphosphonium chloride] |  | provided substantial protection | could be suppressed |  |  | 
6 | O=C(O)c1cc(=O)[nH]c(=O)[nH]1 [OA, orotate] |  |  |  | sensitized cells to | drastically increased | protecting (DHO) or sensitizing (OA) effect in GPX4^low versus GPX4^high cell lines [3]: much more pronounced
7 | COc1ccc(N(C(=O)CCl)C(C(=O)NCCc2ccccc2)c2cccs2)cc1Cl (stereo not shown) [ML162] |  |  |  |  |  | C-Asp level [4]: marked depletion; uridine level [4]: concomitant accumulation; sensitization by DHODH deletion to compound-induced lipid peroxidation and ferroptosis (DHODH KO HT-1080 cells [1]; uridine-supplemented conditions): markedly sensitized
8 | COc1c(O)c(C)c(CCCCCCCCCC[P+](c2ccccc2)(c2ccccc2)c2ccccc2)c(O)c1OC.CS(=O)(=O)[O-] [mitoQH2, [10-(2,5-dihydroxy-3,4-dimethoxy-6-methylphenyl)decyl] triphenyl-phosphonium, monomethanesulfonate] | provided limited protection | significantly protected | significantly protected |  |  | 
9 | O=C1CC(C(=O)O)NC(=O)N1 (stereo not shown) [DHO, dihydroorotate] |  |  |  | protected cells from | drastically increased | protecting (DHO) or sensitizing (OA) effect in GPX4^low versus GPX4^high cell lines [3]: much more pronounced
